Source: patent publication US20220323406A1, “METHODS AND COMPOSITIONS FOR DIFFERENTIATING STEM CELLS” (Massachusetts Institute of Technology, priority 2019, published 2022)

Legend:
[1] = system: ENR+CD organoids (ISC to Paneth cell differentiation); experiment: Primary screen: CCh-stimulated lysozyme secretion LYZ.S, 2.5-D 384-well ENR+CD organoid differentiation; type: cell-based, mouse; settings: primary screen
Description: (§1) High-throughput screening.

ENR+CD organoids = experiment: Primary screen: ATP (CellTiter-Glo 3D, CTG) cell number/viability, 2.5-D 384-well ENR+CD organoids; settings: primary screen; for Z.CTG: standard z score;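 on all read-outs here: compounds given at plating and again on day 3 over a 6-day differentiation from ENR+CV stem-cell-enriched precursors, ATP measured on day 6, plate median as control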
[2] = system: ENR+CD organoids (ISC to Paneth cell differentiation); experiment: Primary screen: basal (non-stimulated) lysozyme secretion LYZ.NS, 2.5-D 384-well ENR+CD organoid differentiation; type: cell-based, mouse; settings: primary screen; for Z.LYZ.NS: standard z score
Description: as §1

[3] = dose 0.08 uM, FC relative to plate median
[4] = dose 0.40 uM, FC relative to plate median
[5] = dose 2.00 uM, FC relative to plate median
[6] = dose 10.00 uM, FC relative to plate median
[7] = dose 0.08 uM, FC vs plate median
[8] = dose 0.40 uM, FC vs plate median
[9] = dose 2.00 uM, FC vs plate median
[10] = dose 10.00 uM, FC vs plate median

Row | SMILES | Z.CTG (ENR+CD organoids; dose 0.08 uM) | Z.CTG (ENR+CD organoids; dose 0.40 uM) | Z.CTG (ENR+CD organoids; dose 2.00 uM) | Z.CTG (ENR+CD organoids; dose 10.00 uM) | Z.LYZ.NS ([2]; dose 0.08 uM) | Z.LYZ.NS ([2]; dose 0.40 uM) | Z.LYZ.NS ([2]; dose 2.00 uM) | Z.LYZ.NS ([2]; dose 10.00 uM) | Dose.FC.LYZ.S [1, 7] | Dose.FC.LYZ.S [1, 8] | Dose.FC.LYZ.S [1, 9] | Dose.FC.LYZ.S [1, 10] | Dose.FC.CTG (ENR+CD organoids; [7]) | Dose.FC.CTG (ENR+CD organoids; [8]) | Dose.FC.CTG (ENR+CD organoids; [9]) | Dose.FC.CTG (ENR+CD organoids; [10]) | Dose.FC.LYZ.NS [2, 7] | Dose.FC.LYZ.NS [2, 8] | Dose.FC.LYZ.NS [2, 9] | Dose.FC.LYZ.NS [2, 10] | further results
1 | O=C(Nc1ccccc1Br)N[C@@H]1CCN(c2ccc(C(F)(F)F)cn2)C1 [SB705498] | 0.318 | −0.102 | −0.009 | −0.089 | 0.642 | −0.433 | −0.008 | −0.154 |  |  |  |  |  |  |  |  |  |  |  |  | Dose.FC.LYZ.S [1, 3]: 0.094 log2 fold change; Dose.FC.LYZ.S [1, 4]: 0.023 log2 fold change; Dose.FC.LYZ.S [1, 5]: −0.030 log2 fold change; Dose.FC.LYZ.S [1, 6]: −0.023 log2 fold change; Dose.FC.CTG (ENR+CD organoids; [3]): 0.133 log2 fold change; Dose.FC.CTG (ENR+CD organoids; [4]): −0.043 log2 fold change; Dose.FC.CTG (ENR+CD organoids; [5]): −0.004 log2 fold change; Dose.FC.CTG (ENR+CD organoids; [6]): −0.037 log2 fold change; Dose.FC.LYZ.NS [2, 3]: 0.074 log2 fold change; Dose.FC.LYZ.NS [2, 4]: −0.050 log2 fold change; Dose.FC.LYZ.NS [2, 5]: −0.001 log2 fold change; Dose.FC.LYZ.NS [2, 6]: −0.018 log2 fold change
2 | Cc1cc(OCc2nnc(SC3CCCC3)n2-c2cccnc2)ccc1-c1ccc(S(C)(=O)=O)cc1 [NMS-873] |  |  |  |  | 0.853 | −1.537 | −2.352 | −2.368 | 0.069 log2 fold change | −0.228 log2 fold change | −0.343 log2 fold change | −0.375 log2 fold change | 0.174 log2 fold change | −0.051 log2 fold change | −0.910 log2 fold change | −1.542 log2 fold change | 0.098 log2 fold change | −0.177 log2 fold change | −0.270 log2 fold change | −0.272 log2 fold change | 
3 | COc1cc(OC)c(/C=C/S(=O)(=O)Cc2ccc(OC)c(NCC(=O)O)c2)c(OC)c1 [Rigosertib (ON-01910)] | −2.162 | −3.069 | −3.984 | −2.022 | −2.105 | −1.831 | −2.306 | −2.107 |  |  |  |  |  |  |  |  |  |  |  |  | Dose.FC.LYZ.S [1, 3]: −0.309 log2 fold change; Dose.FC.LYZ.S [1, 4]: −0.355 log2 fold change; Dose.FC.LYZ.S [1, 5]: −0.340 log2 fold change; Dose.FC.LYZ.S [1, 6]: −0.330 log2 fold change; Dose.FC.CTG (ENR+CD organoids; [3]): −0.905 log2 fold change; Dose.FC.CTG (ENR+CD organoids; [4]): −1.285 log2 fold change; Dose.FC.CTG (ENR+CD organoids; [5]): −1.668 log2 fold change; Dose.FC.CTG (ENR+CD organoids; [6]): −0.847 log2 fold change; Dose.FC.LYZ.NS [2, 3]: −0.242 log2 fold change; Dose.FC.LYZ.NS [2, 4]: −0.210 log2 fold change; Dose.FC.LYZ.NS [2, 5]: −0.265 log2 fold change; Dose.FC.LYZ.NS [2, 6]: −0.242 log2 fold change
4 | O=C(O[C@H]1C[C@H]2CC[C@@H](C1)[N+]21CCCC1)C(O)(c1ccccc1)c1ccccc1 [Trospium chloride] |  |  |  |  |  |  |  |  |  |  |  |  |  |  |  |  |  |  |  |  | Dose.FC.LYZ.S ([1]; dose 0.08 uM): 0.119 log2 fold change; Dose.FC.LYZ.S ([1]; dose 0.40 uM): 0.117 log2 fold change; Dose.FC.LYZ.S ([1]; dose 2.00 uM): −0.008 log2 fold change; Dose.FC.LYZ.S ([1]; dose 10.00 uM): 0.084 log2 fold change; Dose.FC.CTG (ENR+CD organoids; dose 0.08 uM): 0.083 log2 fold change; Dose.FC.CTG (ENR+CD organoids; dose 0.40 uM): −0.031 log2 fold change; Dose.FC.CTG (ENR+CD organoids; dose 2.00 uM): 0.200 log2 fold change; Dose.FC.CTG (ENR+CD organoids; dose 10.00 uM): 0.148 log2 fold change; Dose.FC.LYZ.NS ([2]; dose 0.08 uM): 0.169 log2 fold change; Z.LYZ.NS (standard z score) ([2]; dose 0.08 uM): 1.470; Dose.FC.LYZ.NS ([2]; dose 0.40 uM): 0.218 log2 fold change; Z.LYZ.NS (standard z score) ([2]; dose 0.40 uM): 1.895; Dose.FC.LYZ.NS ([2]; dose 2.00 uM): −0.002 log2 fold change; Z.LYZ.NS (standard z score) ([2]; dose 2.00 uM): −0.017; Dose.FC.LYZ.NS ([2]; dose 10.00 uM): 0.102 log2 fold change; Z.LYZ.NS (standard z score) ([2]; dose 10.00 uM): 0.885
5 | OC(CNCC(O)C1CCc2cc(F)ccc2O1)C1CCc2cc(F)ccc2O1 (stereo not shown) [Nebivolol] |  |  |  |  | 1.525 | 2.776 | 0.960 | 0.836 | 0.194 log2 fold change | 0.282 log2 fold change | 0.069 log2 fold change | 0.105 log2 fold change | 0.388 log2 fold change | 0.220 log2 fold change | 0.312 log2 fold change | 0.209 log2 fold change | 0.175 log2 fold change | 0.319 log2 fold change | 0.110 log2 fold change | 0.096 log2 fold change | 
6 | C/C(=N\NC(=S)N1CCC1)c1ccccn1 [NSC 319726] | 0.316 | −0.441 | −1.068 | −4.555 | 0.982 | −0.780 | −1.323 | −1.992 | 0.060 log2 fold change | −0.035 log2 fold change | −0.248 log2 fold change | −0.327 log2 fold change | 0.132 log2 fold change | −0.185 log2 fold change | −0.447 log2 fold change | −1.907 log2 fold change | 0.113 log2 fold change | −0.090 log2 fold change | −0.152 log2 fold change | −0.229 log2 fold change | 
7 | CN(C)Cc1ccc(-c2nc3cccc4c3n2CCNC4=O)cc1 [AG-14361] |  |  |  |  |  |  |  |  |  |  |  |  |  |  |  |  |  |  |  |  | Dose.FC.LYZ.S ([1]; dose 0.08 uM): 0.100 log2 fold change; Dose.FC.LYZ.S ([1]; dose 0.40 uM): −0.001 log2 fold change; Dose.FC.LYZ.S ([1]; dose 2.00 uM): −0.065 log2 fold change; Dose.FC.LYZ.S ([1]; dose 10.00 uM): −0.189 log2 fold change; Dose.FC.CTG (ENR+CD organoids; dose 0.08 uM): −0.012 log2 fold change; Z.CTG (standard z score) (ENR+CD organoids; dose 0.08 uM): −0.028; Dose.FC.CTG (ENR+CD organoids; dose 0.40 uM): −0.069 log2 fold change; Z.CTG (standard z score) (ENR+CD organoids; dose 0.40 uM): −0.165; Dose.FC.CTG (ENR+CD organoids; dose 2.00 uM): 0.005 log2 fold change; Z.CTG (standard z score) (ENR+CD organoids; dose 2.00 uM): 0.012; Dose.FC.CTG (ENR+CD organoids; dose 10.00 uM): −0.021 log2 fold change; Z.CTG (standard z score) (ENR+CD organoids; dose 10.00 uM): −0.050; Dose.FC.LYZ.NS ([2]; dose 0.08 uM): 0.152 log2 fold change; Z.LYZ.NS (standard z score) ([2]; dose 0.08 uM): 1.324; Dose.FC.LYZ.NS ([2]; dose 0.40 uM): 0.036 log2 fold change; Z.LYZ.NS (standard z score) ([2]; dose 0.40 uM): 0.312; Dose.FC.LYZ.NS ([2]; dose 2.00 uM): 0.032 log2 fold change; Z.LYZ.NS (standard z score) ([2]; dose 2.00 uM): 0.278; Dose.FC.LYZ.NS ([2]; dose 10.00 uM): −0.197 log2 fold change; Z.LYZ.NS (standard z score) ([2]; dose 10.00 uM): −1.713
8 | CC(=O)O[C@H]1C[C@@H]2CC[C@@H]3[C@H](CC[C@@]4(C)[C@H]3C[C@H]([N+]3(C)CCCCC3)[C@@H]4OC(C)=O)[C@@]2(C)C[C@@H]1[N+]1(C)CCCCC1.[Br-].[Br-] [Pancuronium dibromide] | 0.519 | 0.541 | −0.029 | 0.148 | 1.118 | 0.406 | 0.806 | 0.302 | 0.213 log2 fold change | 0.094 log2 fold change | 0.099 log2 fold change | 0.004 log2 fold change | 0.217 log2 fold change | 0.226 log2 fold change | −0.012 log2 fold change | 0.062 log2 fold change | 0.128 log2 fold change | 0.047 log2 fold change | 0.093 log2 fold change | 0.035 log2 fold change | 
